From patent US20210198204A1, “PRODRUGS OF KALLIKREIN INHIBITORS” (BioCryst Pharmaceuticals, Inc., priority 2016, published 2021)

Test: Plasma pharmacokinetics of the parent compound after a single oral dose of prodrug
Assay type: in vivo
Conditions: single oral dose 10 mg/kg, fasted male Sprague Dawley rats, plasma analyzed for the parent compound
Method: Plasma pharmacokinetics of compounds was determined using three male Sprague Dawley rats following a single oral dose administration. All animals were placed in a rat metabolic cage, isolated, and fasted approximately 15 hours prior to dosing. Identifying markers were placed on each animal. Each animal was weighed prior to dose administration. Animals were administered orally with a solution formulation of test compound either in water or a combination of water/propylene glycol, at a dose of 10 mg/kg. Gavage needles were attached to syringes and filled with appropriate amount of test article to be dosed. Blood samples (approximately 500 μL) were collected from three rats at pre-dose (time 0), 0.5, 1, 2, 4, 8, 12 and 24 hr, respectively, depending on study duration. Samples were collected into labeled micro centrifuge tubes containing (heparin solution) as an anticoagulant. Plasma was immediately harvested from the blood by centrifugation at 14,000 rpm for 3 min at 4° C., and stored below −70° C. until bioanalysis. Individual plasma samples were analyzed for the parent compound, 3-[2-(4-carbamimidoyl-phenylcarbamoyl)-5-methoxy-4-vinyl-phenyl]-6-(cyclopropylmethyl-carbamoyl)-pyridine-2-carboxylic acid. As shown in Table-1, the test compounds yielded varying degrees of exposure to the parent compound. The test compounds generally provided for improved bioavailability of the parent compound as compared to dosing of the parent compound in aqueous solutions.

| Structure (SMILES) | AUC0-last hour (area under the curve) (study duration 8 h) | AUC0-last hour (area under the curve) (study duration 12 h) |
| --- | --- | --- |
| C=Cc1cc(C(=O)Nc2ccc(C(=N)N)cc2)c(-c2ccc(C(=O)NCC3CC3)nc2C(=O)OC[C@@H](C)OC(=O)[C@@H](N)C(C)C)cc1OC (single isomer, unassigned) [Compound 18g] | A (A = 0-1,000 ng/mL) |  |
| C=Cc1cc(C(=O)Nc2ccc(C(=N)N)cc2)c(-c2ccc(C(=O)NCC3CC3)nc2C(=O)OC)cc1OC.CS(=O)(=O)O [Compound 1o, Methyl 3-[2-(4-carbamimidoylphenylcarbamoyl)-5-methoxy-4-vinylphenyl]-6-(cyclopropylmethylcarbamoyl)pyridine-2-carboxylate methanesulfonate] | A (A = 0-1,000 ng/mL) |  |
| C=Cc1cc(C(=O)Nc2ccc(C(N)=NO)cc2)c(-c2ccc(C(=O)NCC3CC3)nc2C(=O)O)cc1OC [Compound 9c, 6-((cyclopropylmethyl)carbamoyl)-3-(2-((4-(N′-hydroxycarbamimidoyl)phenyl)carbamoyl)-5-methoxy-4-vinylphenyl)picolinic acid] | A (A = 0-1,000 ng/mL) |  |
| C=Cc1cc(C(=O)Nc2ccc(C(=N)N)cc2)c(-c2ccc(C(=O)NCC3CC3)nc2C(=O)OCOC(=O)C(C)(C)C)cc1OC [Compound 15d, (pivaloyloxy)methyl 3-(2-((4-carbamimidoylphenyl)carbamoyl)-5-methoxy-4-vinylphenyl)-6-((cyclopropylmethyl)carbamoyl)picolinate] |  | A (A = 0-1,000 ng/mL) |
| C=Cc1cc(C(=O)Nc2ccc(C(=N)N)cc2)c(-c2ccc(C(=O)NCC3CC3)nc2C(=O)OC(C)OC(=O)C(C)(C)C)cc1OC (stereo not shown) [Compound 22d, 1-(pivaloyloxy)ethyl 3-(2-((4-carbamimidoylphenyl)carbamoyl)-5-methoxy-4-vinylphenyl)-6-((cyclopropylmethyl)carbamoyl)picolinate] | A (A = 0-1,000 ng/mL) |  |
| C=Cc1cc(C(=O)Nc2ccc(C(=N)N)cc2)c(-c2ccc(C(=O)NCC3CC3)nc2C(=O)O)cc1OC [Compound 23e, 3-(2-((4-carbamimidoylphenyl)carbamoyl)-5-methoxy-4-vinylphenyl)-6-((cyclopropylmethyl)carbamoyl)picolinic acid] | B (B = 1,001-10,000 ng/mL) |  |
| C=Cc1cc(C(=O)Nc2ccc(C(=N)NC(=O)OC(C)OC(C)=O)cc2)c(-c2ccc(C(=O)NCC3CC3)nc2C(=O)O)cc1OC (stereo not shown) [Compound 23f, 3-(2-((4-(N-((1-acetoxyethoxy)carbonyl)carbamimidoyl)phenyl)carbamoyl)-5-methoxy-4-vinylphenyl)-6-((cyclopropylmethyl)carbamoyl)picolinic acid] |  | B (B = 1,001-10,000 ng/mL) |
| C=Cc1cc(C(=O)Nc2ccc(C(=N)NC(=O)OCCCCCC)cc2)c(-c2ccc(C(=O)NCC3CC3)nc2C(=O)O)cc1OC [Compound 24c, 6-((cyclopropylmethyl)carbamoyl)-3-(2-((4-(N-((hexyloxy)carbonyl)carbamimidoyl)phenyl)carbamoyl)-5-methoxy-4-vinylphenyl)picolinic acid] | A (A = 0-1,000 ng/mL) |  |
| C=Cc1cc(C(=O)Nc2ccc(C(=N)NC(=O)OC(C)OC(=O)[C@@H](N)C(C)C)cc2)c(-c2ccc(C(=O)NCC3CC3)nc2C(=O)O)cc1OC (stereo partly drawn) [Compound 33c, 3-(2-((4-(N-((1-(((S)-2-amino-3-methylbutanoyl)oxy)ethoxy)carbonyl)carbamimidoyl)phenyl)carbamoyl)-5-methoxy-4-vinylphenyl)-6-((cyclopropylmethyl)carbamoyl)picolinic acid] |  | B (B = 1,001-10,000 ng/mL) |
| C=Cc1cc(C(=O)Nc2ccc(C(=N)NC(=O)OCC)cc2)c(-c2ccc(C(=O)NCC3CC3)nc2C(=O)OCc2oc(=O)oc2C)cc1OC [Compound 34a, (5-methyl-2-oxo-1,3-dioxol-4-yl)methyl 6-((cyclopropylmethyl)carbamoyl)-3-(2-((4-(N-(ethoxycarbonyl)carbamimidoyl)phenyl)carbamoyl)-5-methoxy-4-vinylphenyl)picolinate] | B (B = 1,001-10,000 ng/mL) |  |

Next, values leading:

| AUC0-last hour (area under the curve) (study duration 8 h) | AUC0-last hour (area under the curve) (study duration 12 h) | Structure (SMILES) |
| --- | --- | --- |
| A (A = 0-1,000 ng/mL) |  | C=Cc1cc(C(=O)Nc2ccc(C(=N)N)cc2)c(-c2ccc(C(=O)NCC3CC3)nc2C(=O)OC[C@H](C)OC(=O)[C@@H](N)C(C)C)cc1OC (single isomer, unassigned) [Compound 18f] |
|  | A (A = 0-1,000 ng/mL) | C=Cc1cc(C(=O)Nc2ccc(C(=N)N)cc2)c(-c2ccc(C(=O)NCC3CC3)nc2C(=O)OCCN2CCOCC2)cc1OC.Cl [Compound 2d, 2-morpholinoethyl 3-(2-((4-carbamimidoylphenyl)carbamoyl)-5-methoxy-4-vinylphenyl)-6-((cyclopropylmethyl)carbamoyl)picolinate hydrochloride] |
| A (A = 0-1,000 ng/mL) |  | C=Cc1cc(C(=O)Nc2ccc(C(=N)NC(=O)OCCCCCC)cc2)c(-c2ccc(C(=O)NCC3CC3)nc2C(=O)OCCN2CCOCC2)cc1OC.Cl [Compound 6a, 2-morpholinoethyl 6-((cyclopropylmethyl)carbamoyl)-3-(2-((4-(N-((hexyloxy)carbonyl)carbamimidoyl)phenyl)carbamoyl)-5-methoxy-4-vinylphenyl)picolinate hydrochloride] |
|  | B (B = 1,001-10,000 ng/mL) | C=Cc1cc(C(=O)Nc2ccc(C(=N)N)cc2)c(-c2ccc(C(=O)NCC3CC3)nc2C(=O)OCOC(=O)[C@@H](N)C(C)C)cc1OC.O=C(O)C(F)(F)F [Compound 10e, (S)-((2-amino-3-methylbutanoyl)oxy)methyl 3-(2-((4-carbamimidoylphenyl)carbamoyl)-5-methoxy-4-vinylphenyl)-6-((cyclopropylmethyl)carbamoyl)picolinate trifluoroacetate] |
|  | A (A = 0-1,000 ng/mL) | C=Cc1cc(C(=O)Nc2ccc(C(=N)N)cc2)c(-c2ccc(C(=O)NCC3CC3)nc2C(=O)OCOC(=O)OC(C)C)cc1OC [Compound 14d, ((isopropoxycarbonyl)oxy)methyl 3-(2-((4-carbamimidoylphenyl)carbamoyl)-5-methoxy-4-vinylphenyl)-6-((cyclopropylmethyl)carbamoyl)picolinate] |
| A (A = 0-1,000 ng/mL) |  | C=Cc1cc(C(=O)Nc2ccc(C(=N)N)cc2)c(-c2ccc(C(=O)NCC3CC3)nc2C(=O)OCC(C)OC(=O)[C@@H](N)C(C)C)cc1OC (stereo partly drawn) [Compound 18e, 2-(((S)-2-amino-3-methylbutanoyl)oxy)propyl 3-(2-((4-carbamimidoylphenyl)carbamoyl)-5-methoxy-4-vinylphenyl)-6-((cyclopropylmethyl)carbamoyl)picolinate] |
|  | A (A = 0-1,000 ng/mL) | C=Cc1cc(C(=O)Nc2ccc(C(=N)N)cc2)c(-c2ccc(C(=O)NCC3CC3)nc2C(=O)OCc2oc(=O)oc2C)cc1OC [Compound 19d, (5-methyl-2-oxo-1,3-dioxol-4-yl)methyl 3-(2-((4-carbamimidoylphenyl)carbamoyl)-5-methoxy-4-vinylphenyl)-6-((cyclopropylmethyl)carbamoyl)picolinate] |
| A (A = 0-1,000 ng/mL) |  | C=Cc1cc(C(=O)Nc2ccc(C(=N)NC(=O)OC(C)C)cc2)c(-c2ccc(C(=O)NCC3CC3)nc2C(=O)OC)cc1OC [Compound 20b, methyl 6-((cyclopropylmethyl)carbamoyl)-3-(2-((4-(N-(isopropoxycarbonyl)carbamimidoyl)phenyl)carbamoyl)-5-methoxy-4-vinylphenyl)picolinate] |
|  | B (B = 1,001-10,000 ng/mL) | C=Cc1cc(C(=O)Nc2ccc(C(=N)N)cc2)c(-c2ccc(C(=O)NCC3CC3)nc2C(=O)OC(C)OC(=O)C(C)C)cc1OC (stereo not shown) [Compound 29d, 1-(isobutyryloxy)ethyl 3-(2-(4-carbamimidoylphenylcarbamoyl)-5-methoxy-4-vinylphenyl)-6-(cyclopropylmethylcarbamoyl)picolinate] |
|  | B (B = 1,001-10,000 ng/mL) | C=Cc1cc(C(=O)Nc2ccc(C(=N)NC(=O)OCCCCCC)cc2)c(-c2ccc(C(=O)NCC3CC3)nc2C(=O)OCOC(=O)[C@@H](N)C(C)C)cc1OC [Compound 31b, (S)-((2-amino-3-methylbutanoyl)oxy)methyl 6-((cyclopropylmethyl)carbamoyl)-3-(2-((4-(N-((hexyloxy)carbonyl)carbamimidoyl)phenyl)carbamoyl)-5-methoxy-4-vinylphenyl)picolinate] |
|  | B (B = 1,001-10,000 ng/mL) | C=Cc1cc(C(=O)Nc2ccc(C(=N)NC(=O)OCC)cc2)c(-c2ccc(C(=O)NCC3CC3)nc2C(=O)OCOC(=O)[C@@H](N)C(C)C)cc1OC [Compound 32c, (S)-((2-amino-3-methylbutanoyl)oxy)methyl 6-((cyclopropylmethyl)carbamoyl)-3-(2-((4-(N-(ethoxycarbonyl)carbamimidoyl)phenyl)carbamoyl)-5-methoxy-4-vinylphenyl)picolinate] |
| B (B = 1,001-10,000 ng/mL) |  | C=Cc1cc(C(=O)Nc2ccc(C(=N)NC(=O)OCCCCCC)cc2)c(-c2ccc(C(=O)NCC3CC3)nc2C(=O)OCc2oc(=O)oc2C)cc1OC [Compound 35a, (5-methyl-2-oxo-1,3-dioxol-4-yl)methyl 6-((cyclopropylmethyl)carbamoyl)-3-(2-((4-(N-((hexyloxy)carbonyl)carbamimidoyl)phenyl)carbamoyl)-5-methoxy-4-vinylphenyl)picolinate] |
